Assay results as given in the CheMixHub viscosity set.
± gives the uncertainty stated by the source.

Assay: xn = mol fraction of the nth substance listed
Conditions: 101 kPa

CCOc1ccccc1 + CCNc1ccccc1
viscosity [mPa·s]
Conditions | 293.15 K | 298.15 K | 303.15 K | 308.15 K | 313.15 K | 318.15 K | 323.15 K
x2 = 0.0508 | 1.253 ± 0.051 | 1.161 ± 0.051 | 1.063 ± 0.051 | 0.999 ± 0.051 | 0.933 ± 0.05 | 0.868 ± 0.05 | 0.808 ± 0.05
x2 = 0.1098 | 1.291 ± 0.051 | 1.19 ± 0.051 | 1.088 ± 0.051 | 1.021 ± 0.051 | 0.953 ± 0.05 | 0.884 ± 0.05 | 0.823 ± 0.05
x2 = 0.1509 | 1.317 ± 0.051 | 1.211 ± 0.051 | 1.105 ± 0.051 | 1.036 ± 0.051 | 0.965 ± 0.05 | 0.896 ± 0.05 | 0.832 ± 0.05
x2 = 0.2097 | 1.355 ± 0.051 | 1.241 ± 0.051 | 1.131 ± 0.051 | 1.057 ± 0.051 | 0.983 ± 0.051 | 0.91 ± 0.05 | 0.845 ± 0.05
x2 = 0.2533 | 1.386 ± 0.051 | 1.265 ± 0.051 | 1.151 ± 0.051 | 1.072 ± 0.051 | 0.996 ± 0.051 | 0.921 ± 0.05 | 0.855 ± 0.05
x2 = 0.3046 | 1.423 ± 0.051 | 1.295 ± 0.051 | 1.176 ± 0.051 | 1.093 ± 0.051 | 1.012 ± 0.051 | 0.935 ± 0.05 | 0.866 ± 0.05
x2 = 0.3501 | 1.459 ± 0.051 | 1.323 ± 0.051 | 1.2 ± 0.051 | 1.112 ± 0.051 | 1.028 ± 0.051 | 0.948 ± 0.05 | 0.878 ± 0.05
x2 = 0.4081 | 1.51 ± 0.051 | 1.364 ± 0.051 | 1.234 ± 0.051 | 1.141 ± 0.051 | 1.052 ± 0.051 | 0.967 ± 0.05 | 0.894 ± 0.05
x2 = 0.4533 | 1.552 ± 0.051 | 1.397 ± 0.051 | 1.262 ± 0.051 | 1.164 ± 0.051 | 1.071 ± 0.051 | 0.984 ± 0.05 | 0.908 ± 0.05
x2 = 0.5003 | 1.599 ± 0.051 | 1.435 ± 0.051 | 1.295 ± 0.051 | 1.191 ± 0.051 | 1.094 ± 0.051 | 1.003 ± 0.05 | 0.924 ± 0.05
x2 = 0.5519 | 1.655 ± 0.051 | 1.479 ± 0.051 | 1.333 ± 0.051 | 1.223 ± 0.051 | 1.122 ± 0.051 | 1.027 ± 0.05 | 0.944 ± 0.05
x2 = 0.6068 | 1.719 ± 0.051 | 1.531 ± 0.051 | 1.377 ± 0.051 | 1.26 ± 0.051 | 1.153 ± 0.051 | 1.054 ± 0.05 | 0.967 ± 0.05
x2 = 0.6496 | 1.772 ± 0.051 | 1.574 ± 0.051 | 1.414 ± 0.051 | 1.291 ± 0.051 | 1.18 ± 0.051 | 1.077 ± 0.05 | 0.986 ± 0.05
x2 = 0.7065 | 1.846 ± 0.051 | 1.633 ± 0.051 | 1.464 ± 0.051 | 1.333 ± 0.051 | 1.215 ± 0.051 | 1.107 ± 0.051 | 1.012 ± 0.05
x2 = 0.7497 | 1.906 ± 0.051 | 1.682 ± 0.051 | 1.506 ± 0.051 | 1.367 ± 0.051 | 1.244 ± 0.051 | 1.131 ± 0.051 | 1.033 ± 0.05
x2 = 0.7998 | 1.978 ± 0.051 | 1.739 ± 0.051 | 1.554 ± 0.051 | 1.407 ± 0.051 | 1.278 ± 0.051 | 1.16 ± 0.051 | 1.058 ± 0.05
x2 = 0.8505 | 2.055 ± 0.051 | 1.798 ± 0.051 | 1.604 ± 0.051 | 1.447 ± 0.051 | 1.311 ± 0.051 | 1.188 ± 0.051 | 1.082 ± 0.05
x2 = 0.9019 | 2.133 ± 0.052 | 1.859 ± 0.051 | 1.653 ± 0.051 | 1.487 ± 0.051 | 1.344 ± 0.051 | 1.214 ± 0.051 | 1.105 ± 0.05
x2 = 0.9502 | 2.205 ± 0.052 | 1.914 ± 0.051 | 1.699 ± 0.051 | 1.525 ± 0.051 | 1.374 ± 0.051 | 1.239 ± 0.051 | 1.125 ± 0.05
